Laboratory results published in article PMC6149709, “(−)-Epigallocatechin-3-Gallate Inhibits the Chaperone Activity of Plasmodium falciparum Hsp70 Chaperones and Abrogates Their Association with Functional Partners” (Molecules : A Journal of Synthetic Chemistry and Natural …, 2017).
Like-named read-outs stand apart in the source and are kept apart here.

Columns and labels:
PfHsp70-z [1] = target: T1, PfHsp70-z (Plasmodium falciparum, UniProt Q8IC01); experiment: Suppression of heat-induced aggregation of MDH (chaperone function); assay type: biochemical; settings: 48 °C; for effect on chaperone activity (MDH aggregation): 5 mM ADP/ATP
T1 sequence (Q8IC01 entry or part of it): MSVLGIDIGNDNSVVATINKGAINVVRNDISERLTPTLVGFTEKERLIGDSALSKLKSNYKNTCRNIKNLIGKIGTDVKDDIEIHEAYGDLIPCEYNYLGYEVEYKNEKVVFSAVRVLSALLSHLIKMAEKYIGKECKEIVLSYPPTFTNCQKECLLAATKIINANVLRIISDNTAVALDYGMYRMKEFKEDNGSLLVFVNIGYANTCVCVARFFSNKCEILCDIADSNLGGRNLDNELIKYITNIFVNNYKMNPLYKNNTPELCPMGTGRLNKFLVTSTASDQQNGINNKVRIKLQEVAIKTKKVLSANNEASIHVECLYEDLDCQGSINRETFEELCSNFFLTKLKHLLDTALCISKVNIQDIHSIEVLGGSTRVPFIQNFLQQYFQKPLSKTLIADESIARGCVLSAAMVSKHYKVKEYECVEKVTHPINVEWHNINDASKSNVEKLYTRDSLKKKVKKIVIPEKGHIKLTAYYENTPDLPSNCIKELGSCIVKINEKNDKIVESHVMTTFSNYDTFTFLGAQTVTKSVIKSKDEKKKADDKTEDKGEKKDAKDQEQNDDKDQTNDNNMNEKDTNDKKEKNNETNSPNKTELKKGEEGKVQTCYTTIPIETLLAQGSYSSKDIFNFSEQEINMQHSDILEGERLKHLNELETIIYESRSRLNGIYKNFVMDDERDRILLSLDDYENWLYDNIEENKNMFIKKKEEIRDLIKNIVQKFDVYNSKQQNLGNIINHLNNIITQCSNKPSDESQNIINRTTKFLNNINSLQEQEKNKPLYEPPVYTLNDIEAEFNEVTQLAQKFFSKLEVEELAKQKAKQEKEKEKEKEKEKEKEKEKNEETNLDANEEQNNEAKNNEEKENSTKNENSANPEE
Description: (§1) The chaperone function of parasite Hsp70s was investigated by monitoring heat-induced aggregation of a model protein, malate dehydrogenase (MDH) from porcine heart (Sigma-Aldrich), as previously described, with minor modifications. Before conducting the assays, we first established that both purified preparations of PfHsp70-1 and PfHsp70-z were heat-stable at 48 °C. After this, we then investigated the effects of the chaperones (PfHsp70-1/PfHsp70-z) on the heat-induced aggregation of MDH. To determine the effects of EGCG on the chaperone function of the two proteins, the assay was repeated in the presence of 2.5 µM of EGCG. EGCG was used at this concentration (2.5 µM) because this was the lowest concentration at which it inhibited the function of the chaperones. […] For statistical analysis, a one-way ANOVA test was conducted using GraphPad Prism 6 (San Diego, CA, USA).

PfHsp70-1 [2] = target: T2, PfHsp70-1 (Plasmodium falciparum, UniProt Q8IB24); experiment: as above; assay type: biochemical; settings: 48 °C; for effect on chaperone activity (MDH aggregation): 5 mM ADP/ATP
T2 sequence (Q8IB24 entry or part of it): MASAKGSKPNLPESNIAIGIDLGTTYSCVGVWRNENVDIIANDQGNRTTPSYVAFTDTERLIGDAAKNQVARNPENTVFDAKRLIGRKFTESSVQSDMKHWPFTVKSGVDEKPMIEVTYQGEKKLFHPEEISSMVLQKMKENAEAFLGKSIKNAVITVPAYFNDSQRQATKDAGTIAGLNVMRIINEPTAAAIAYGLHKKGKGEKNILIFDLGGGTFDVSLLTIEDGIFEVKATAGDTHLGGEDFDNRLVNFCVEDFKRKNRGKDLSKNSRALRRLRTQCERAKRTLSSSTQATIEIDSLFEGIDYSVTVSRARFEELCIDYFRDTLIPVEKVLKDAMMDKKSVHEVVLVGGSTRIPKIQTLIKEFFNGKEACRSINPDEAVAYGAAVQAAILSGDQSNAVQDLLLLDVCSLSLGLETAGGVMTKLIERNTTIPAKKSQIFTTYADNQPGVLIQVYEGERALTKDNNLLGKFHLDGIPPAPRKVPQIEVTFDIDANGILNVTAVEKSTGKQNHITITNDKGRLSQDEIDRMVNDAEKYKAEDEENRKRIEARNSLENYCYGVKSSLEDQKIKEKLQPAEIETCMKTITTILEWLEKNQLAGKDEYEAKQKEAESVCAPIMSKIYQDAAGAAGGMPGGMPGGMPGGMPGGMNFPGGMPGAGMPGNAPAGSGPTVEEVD
Description: as §1

PfHsp70-1 [3] = target: T2, PfHsp70-1; experiment: SPR binding affinity to immobilised PfHsp70-1; settings: EGCG vs ATP binding to PfHsp70-1
Description: (§2) The binding affinity of EGCG for the two P. falciparum Hsp70s was determined using a Bio-Rad ProteOn XPR36 system (Hercules, CA, USA), as previously described. Briefly, PfHsp70-1, PfHsp70-1NBD, and PfHsp70-z (as ligands) were separately immobilized onto an HTE chip at concentrations of 0.5 μg/mL and 1 μg/mL, respectively, in order to validate the data. […] In order to determine the association of EGCG with the respective ligand, the EGCG stock solution was prepared in deionised water. Aliquots of EGCG were prepared at final concentrations of 0, 125, 250, 500, 1000, and 2000 nM and injected at 100 μL/min into each horizontal channel. Association was allowed for 2 min and dissociation was monitored for 8 min. Data collected was double referenced using a buffer blank (buffer without EGCG) and a channel in which protein was excluded. Steady-state equilibrium constant data were processed and analysed using BioRad ProteOn Manager Version 3.1.0.6 (Hercules, CA, USA) and GE Healthcare Biosciences BIA evaluation Version 4.1.1 software (Uppsala, Sweden).

PfHsp70-z [4] = target: T1, PfHsp70-z; experiment: SPR binding affinity to immobilised PfHsp70-z; settings: EGCG vs ATP binding to PfHsp70-z
Description: as §2

PfHsp70-z [5] = target: T1, PfHsp70-z; experiment: Basal ATPase activity, colourimetric Pi release; assay type: biochemical
Description: (§3) The basal ATPase activities of the parasite Hsp70s was assessed by a colourimetric-based method, as previously described. Briefly, 0.4 µM of recombinant proteins (PfHsp70-1/PfHsp70-z) was incubated in buffer HKMD (10 mM HEPES-KOH pH 7.5, 100 mM KCl, 2 mM MgCl2, 0.5 mM DTT) at 37 °C. […] The released inorganic phosphate was detected by adding 1.25% ammonium molybdate and 9% ascorbic acid and monitored using a M3 SpectraMax (Molecular Devices, Sunnyvale, CA, USA) spectrophotometer at 660 nm. To determine the effect of EGCG on the ATPase activity of parasite Hsp70s, the assay was repeated in the presence of varying amounts (0–5 µM) of EGCG.

PfHsp70-1 [6] = target: T2, PfHsp70-1; experiment: Basal ATPase activity, colourimetric Pi release; assay type: biochemical
Description: as §3

P. falciparum 3D7 = experiment: Antiplasmodial pLDH growth inhibition assay; assay type: cell-based; settings: Plasmodium falciparum
Description: P. falciparum 3D7 parasites were grown and maintained in continuous culture, as previously described, with minor modifications. The growth of P. falciparum 3D7-infected erythrocytes subjected to treatment with varying amounts (0, 0.156, 0.3125, 0.625, 1.25, 2.5, and 5 μM) of EGCG was monitored using the P. falciparum lactate dehydrogenase (pLDH) method, as previously described. As a control, Chloroquine, a known antimalarial drug, was used as a positive control in the assay. Serially-diluted EGCG was added to each culture batch. Uninfected erythrocytes that were similarly treated with EGCG were included to cater for possible lysis of erythrocytes exposed to EGCG. A blank consisting of media and EGCG was also set up. P. falciparum 3D7-infected erythrocytes that were not exposed to EGCG treatment were used as the viability control, representing ‘100% growth’. Analysis of the growth inhibition assay data was carried out using GraphPad Prism 6 (San Diego, CA, USA). The assay was repeated three times.

PfHsp70-z [7] = target: T1, PfHsp70-z; experiment: Tryptophan/tyrosine fluorescence, tertiary conformation; settings: EGCG 0–5 μM
Description: (§4) We further exposed the two proteins to varying amounts (0–5 µM) of EGCG and monitored he perturbation of the tertiary structural conformations of the proteins using both tyrosine and tryptophan fluorescence, as previously described. The respective recombinant protein (PfHsp70-1 of PfHsp70-z) at a final concentration of 0.45 μg/mL was incubated in assay buffer A (25 mM HEPES-KOH pH 7.5, 100 mM KCl, 10 mM MgOAc) at 20 °C either in the absence or presence of variable EGCG levels (0–5 μM). […] Tryptophan fluorescence spectra were recorded between 300 nm and 400 nm after initial excitation at 295 nm using a JASCO FP-6300 spectrofluorometer (Dunmow, UK). The combined fluorescence of tyrosine and tryptophan was monitored after initial excitation at 285 nm. Subsequently, fluorescence was monitored at wavelengths between 300 nm and 400 nm using a JASCO FP-6300 spectrofluorometer. The resultant spectra were averaged for least 15 scans and processed after subtraction of the baseline scan (buffer in which protein was excluded). A control consisting of a buffer containing EGCG, but lacking protein was used to account for baseline fluorescence.

PfHsp70-1 [8] = target: T2, PfHsp70-1; experiment: as above; settings: EGCG 0–5 μM
Description: as §4

Nc1ncnc2c1ncn2[C@@H]1O[C@H](COP(=O)(O)OP(=O)(O)O)[C@@H](O)[C@H]1O [ADP]
effect on chaperone activity (MDH aggregation) (PfHsp70-z [1]): did not alter the chaperone activity
effect on chaperone activity (MDH aggregation) (PfHsp70-1 [2]): did not alter the chaperone activity

Nc1ncnc2c1ncn2[C@@H]1O[C@H](COP(=O)(O)OP(=O)(O)OP(=O)(O)O)[C@@H](O)[C@H]1O [ATP]
effect on chaperone activity (MDH aggregation) (PfHsp70-z [1]): not affecting the activity
effect on chaperone activity (MDH aggregation) (PfHsp70-1 [2]): did inhibit the activity

O=C(O[C@@H]1Cc2c(O)cc(O)cc2O[C@@H]1c1cc(O)c(O)c(O)c1)c1cc(O)c(O)c(O)c1 [EGCG, (−)-Epigallocatechin-3-gallate]
fold higher affinity than ATP (PfHsp70-1 [3]): approximately 10 fold
fold higher affinity than ATP (PfHsp70-z [4]): approximately 10 fold
Ki (PfHsp70-z [5]): 2340 nM
Vmax (PfHsp70-z [5]; EGCG 0.156 μM): 20.58 (±0.5) nmol/min/mg
Vmax (PfHsp70-z [5]; EGCG 0.3125 μM): 18.46 (±0.3) nmol/min/mg
Vmax (PfHsp70-z [5]; EGCG 0.625 μM): 19.66 (±0.5) nmol/min/mg
Vmax (PfHsp70-z [5]; EGCG 1.25 μM): 21.26 (±0.9) nmol/min/mg
Vmax (PfHsp70-z [5]; EGCG 2.5 μM): 18.88 (±0.6) nmol/min/mg
Vmax (PfHsp70-z [5]; EGCG 5.0 μM): 17.57 (±0.3) nmol/min/mg
Ki (PfHsp70-1 [6]): 1720 nM
Vmax (PfHsp70-1 [6]; EGCG 0.156 μM): 28.22 (±1.5) nmol/min/mg
Vmax (PfHsp70-1 [6]; EGCG 0.3125 μM): 29.03 (±0.7) nmol/min/mg
Vmax (PfHsp70-1 [6]; EGCG 0.625 μM): 28.40 (±0.95) nmol/min/mg
Vmax (PfHsp70-1 [6]; EGCG 1.25 μM): 27.47 (±2.01) nmol/min/mg
Vmax (PfHsp70-1 [6]; EGCG 2.5 μM): 29.04 (±0.6) nmol/min/mg
Vmax (PfHsp70-1 [6]; EGCG 5.0 μM): 30.06 (±0.5) nmol/min/mg
IC50 (P. falciparum 3D7; 3D7, blood stages, pLDH, read-out: IC50 parasite growth): 2900 nM
shift of peak wavelength, tryptophan and tyrosine fluorescence (PfHsp70-z [7]): red shift
shift of peak wavelength, tryptophan and tyrosine fluorescence (PfHsp70-1 [8]): red shift
effect on capability to suppress heat-induced aggregation of MDH (PfHsp70-z [1]; 2.5 µM EGCG): abrogated
lowest concentration at which it inhibited the function of the chaperones (PfHsp70-z [1]; MDH aggregation): 2.5 µM
effect on capability to suppress heat-induced aggregation of MDH (PfHsp70-1 [2]; 2.5 µM EGCG): abrogated
lowest concentration at which it inhibited the function of the chaperones (PfHsp70-1 [2]; MDH aggregation): 2.5 µM

CCN(CC)CCCC(C)Nc1ccnc2cc(Cl)ccc12 (stereo not shown) [chloroquine]
IC50 (P. falciparum 3D7; 3D7, read-out: IC50 parasite growth): 8.5 nM
